Key:
normal ICR mice [1] = assay: In vivo hypoglycemic activity of GLP-1 analogues, duodenal administration, oral glucose loading; set-up: species or system mouse
Description: FIG. 22. In vivo hypoglycemic activities of GLP-1 analogues by duodenal administration. Normal ICR mice were anesthetized with inhalation of ether, and the duodenum was surgically removed and injected with GLP-1 and its analogues or a corresponding volume of saline ([…], n=9-11), and finally the incision was sewed. After 15 min, glucose solution (2 g/kg) was administered by gavage, and blood was collected from the tail tips at 15, 30, and 60 min after glucose administration. Blood glucose was measured using glucose oxidase method, and blood glucose values and area under the blood glucose curve (AUC) were calculated at each timepoint.
Drug delivery technology can use enteric coating technology to achieve oral administration targeting the small intestine. In order to test the feasibility of direct small intestinal administration of GLP-1, the present invention designs duodenal administration. The experimental process is as follows: The day before the experiment, all of the animals were fasted for 15-16 hours with water ad libitum. On the day of the experiment, the animals were randomly divided according to body weight (n=9-11 or 14-15 for combined administration). Firstly, the blood was collected from the tail tip at 0 hours, and then the animals were anesthetized by inhaling ether. A small incision was made near the underside of the stomach using surgical scissors, and the duodenum was carefully removed and administered with GLP-1 analogs (SEQ ID NOs: 194-209, 10 μmol/kg) or saline. Finally, the wound was sutured. After 15 minutes, the glucose solution (2 g/kg) was administered by gavage, and the blood were collected from the tail tips at 15, 30, and 60 minutes after glucose administration. Blood glucose was measured using the glucose oxidase method. The blood glucose at each moment and area under the blood glucose-time curve (AUC) were calculated.
AUC mg×h/dL)=(BG0+BG15)×15/60+(BG15+BG30)×15/60+(BG30+BG60)×30/60. BG0, BG15, BG30, and BG60 represent blood glucose levels at 0, 15, 30, and 60 minutes after glucose loading, respectively.

normal ICR mice [2] = assay: In vivo hypoglycemic activity of GLP-1 analogues, subcutaneous administration, oral glucose loading; set-up: species or system mouse; settings: subcutaneous 1 μmol/kg, mean
Description: FIG. 21. In vivo hypoglycemic activities of GLP-1 analogues by subcutaneous administration. Normal ICR mice were subcutaneously injected with GLP-1 and its analogues or corresponding volumes of saline (1.0 μmol/kg, n=10). After 30 min, glucose solution (2 g/kg) was administered by gavage, and blood was collected from the tail tip at 30, 60, and 120 min after glucose administration. Blood glucose was measured using glucose oxidase method, and blood glucose values and area under the blood glucose curve (AUC) were calculated at each timepoint.
The day before the experiment, all of the animals were fasted for 15-16 hours with water ad libitum. On the day of the experiment, the animals were randomly divided according to body weight (n=10). Firstly, the blood was collected from the tail tip at 0 hour, and then the animals were administered subcutaneously with GLP-1 analog (SEQ ID NOs: 194-201, 1 μmol/kg) or saline. After 30 minutes, the animals were administered by gavage with glucose solution (2 g/kg), and the blood was collected from the tail tip at 30, 60, and 120 minutes later. Blood glucose was measured using glucose oxidase method. The blood glucose and area under the blood glucose-time curve (AUC) were calculated.

DPP-IV = DPP-IV (Homo sapiens, UniProt P27487); assay: Tolerance of GLP-1 and its analogues to DPP-IV (RP-HPLC remaining peak area); format: in vitro ADME; settings: peptide 25 μM, DPP-IV 0.5 ng/μL, 37° C.
Description: Mix by centrifugation at 8000 rpm for 30 seconds.
(2) Arrange a certain volume of 0.005 μg/μL DPP-IV solution in another sterile EP.

[3] = Stability of GLP-1 and its analogues in human serum; settings: 25% (v/v) human serum
elastase = elastase (Sus scrofa, UniProt P00772); assay: in vitro; settings: isolated enzyme elastase
Method in brief: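 Peptides and elastase (0.5 μg/μL solution) each pre-warmed 5 min at 37° C, then mixed; aliquots taken at 1.5 to 60.0 min and quenched with 10% TFA. Remaining intact peptide quantified as RP-HPLC peak area.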

[4] = duodenal 10 μmol/kg, normal ICR mice, after oral glucose loading
[5] = pH 8, Remaining peak area (%)/elastase

DPP-IV, sequence (P27487 whole entry, species assumed): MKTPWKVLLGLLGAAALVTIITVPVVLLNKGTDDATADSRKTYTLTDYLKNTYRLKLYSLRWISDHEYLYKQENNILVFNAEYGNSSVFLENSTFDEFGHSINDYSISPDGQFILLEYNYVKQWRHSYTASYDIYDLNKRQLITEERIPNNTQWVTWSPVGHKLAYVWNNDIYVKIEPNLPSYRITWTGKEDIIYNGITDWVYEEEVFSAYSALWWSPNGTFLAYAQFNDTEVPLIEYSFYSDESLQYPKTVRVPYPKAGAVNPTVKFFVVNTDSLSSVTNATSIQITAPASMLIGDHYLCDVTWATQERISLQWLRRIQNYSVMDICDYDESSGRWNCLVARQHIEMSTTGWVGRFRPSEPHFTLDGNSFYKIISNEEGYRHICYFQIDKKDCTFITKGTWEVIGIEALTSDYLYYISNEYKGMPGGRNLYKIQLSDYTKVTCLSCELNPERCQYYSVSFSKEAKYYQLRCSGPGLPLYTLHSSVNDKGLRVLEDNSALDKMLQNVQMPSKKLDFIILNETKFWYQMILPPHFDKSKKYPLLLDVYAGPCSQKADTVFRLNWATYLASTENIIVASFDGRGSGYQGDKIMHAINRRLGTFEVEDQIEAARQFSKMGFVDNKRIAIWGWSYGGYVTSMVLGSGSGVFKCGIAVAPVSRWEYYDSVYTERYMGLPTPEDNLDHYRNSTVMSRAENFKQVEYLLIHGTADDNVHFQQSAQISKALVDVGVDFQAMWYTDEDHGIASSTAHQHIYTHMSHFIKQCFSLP
elastase, sequence (P00772 27-266): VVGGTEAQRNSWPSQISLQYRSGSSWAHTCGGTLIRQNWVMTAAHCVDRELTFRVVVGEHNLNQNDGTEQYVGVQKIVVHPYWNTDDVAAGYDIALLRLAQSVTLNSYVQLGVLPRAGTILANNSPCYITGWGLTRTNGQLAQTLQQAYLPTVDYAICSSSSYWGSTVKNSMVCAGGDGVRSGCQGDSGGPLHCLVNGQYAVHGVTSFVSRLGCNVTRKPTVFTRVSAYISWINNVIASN

CC[C@H](C)[C@H](NC(=O)[C@H](Cc1ccccc1)NC(=O)[C@H](CCC(=O)O)NC(=O)[C@H](CCCCN)NC(=O)[C@H](C)NC(=O)[C@H](C)NC(=O)[C@H](CCC(N)=O)NC(=O)CNC(=O)[C@H](CCC(=O)O)NC(=O)[C@H](CC(C)C)NC(=O)[C@H](Cc1ccc(O)cc1)NC(=O)[C@H](CO)NC(=O)[C@H](CO)NC(=O)[C@@H](NC(=O)[C@H](CC(=O)O)NC(=O)[C@H](CO)NC(=O)[C@@H](NC(=O)[C@H](Cc1ccccc1)NC(=O)[C@@H](NC(=O)CNC(=O)[C@H](CCC(=O)O)NC(=O)[C@H](C)NC(=O)[C@H](Cc1c[nH]cn1)NC(=O)CNC(=O)CNC(=O)[C@@H](NC(=O)[C@@H]1CCCN1C(=O)[C@@H](NC(=O)CNC(=O)CNC(=O)[C@H](CCC(N)=O)NC(=O)[C@@H]1CSSC[C@H](NC(=O)[C@@H](N)CC(C)C)C(=O)N[C@@H]([C@@H](C)O)C(=O)N[C@@H](C)C(=O)N[C@@H](CO)C(=O)N[C@@H]([C@@H](C)CC)C(=O)N2CCC[C@H]2C(=O)N2CCC[C@H]2C(=O)N[C@@H]([C@@H](C)CC)C(=O)N1)[C@@H](C)CC)[C@@H](C)CC)[C@@H](C)O)[C@@H](C)O)C(C)C)C(=O)N[C@@H](C)C(=O)N[C@@H](Cc1c[nH]c2ccccc12)C(=O)N[C@@H](CC(C)C)C(=O)N[C@H](C(=O)N[C@@H](CCCCN)C(=O)NCC(=O)N[C@@H](CCCNC(=N)N)C(=O)NCC(=O)NCC(=O)N[C@@H](CCCCN)C(=O)O)C(C)C [EC12-D-GLP-1]
reduction of blood glucose at 15 minutes compared with Nor (normal ICR mice [1]; [4]): 11.9% | reduction of blood glucose at 30 minutes compared with Nor (normal ICR mice [1]; [4]): 19.9% | reduction of blood glucose at 60 minutes compared with Nor (normal ICR mice [1]; [4]): 17.4% | AUC (blood glucose-time curve) (normal ICR mice [1]; duodenal injection 10 μmol/kg, 0-60 min, mean): 123.6 mg·h/dL | Blood glucose 0 min (normal ICR mice [1]; duodenal injection 10 μmol/kg, 0 min, mean): 75.6 mg/dL | Blood glucose 15 min (normal ICR mice [1]; duodenal injection 10 μmol/kg, 15 min after oral glucose loading, mean): 120.8 mg/dL | Blood glucose 30 min (normal ICR mice [1]; duodenal injection 10 μmol/kg, 30 min, mean): 129.8 mg/dL | Blood glucose 60 min (normal ICR mice [1]; duodenal injection 10 μmol/kg, 60 min, mean): 141.1 mg/dL | AUC (blood glucose-time curve) (normal ICR mice [2]; 0-120 min): 159.1 mg·h/dL | Blood glucose 0 min (normal ICR mice [2]; 0 min, oral glucose loading 2 g/kg): 63.3 mg/dL | Blood glucose 30 min (normal ICR mice [2]; 30 min after oral glucose loading): 103.3 mg/dL | Blood glucose 60 min (normal ICR mice [2]; 60 min after oral glucose loading): 77.2 mg/dL | Blood glucose 120 min (normal ICR mice [2]; 120 min after oral glucose loading): 67.6 mg/dL | Remaining peak area (%)/DPP-IV (DPP-IV; 0.0 h): 100.0 ± 0.0% | remaining at 0.5 h, 25 μM (DPP-IV; isolated DPP-IV enzyme in buffer, pH 8, 0.5 h): 79.1 ± 2.6% | remaining at 2 h, 25 μM (DPP-IV; isolated DPP-IV enzyme in buffer, pH 8, 2.0 h): 78.5 ± 1.1% | remaining at 4 h, 25 μM (DPP-IV; isolated DPP-IV enzyme in buffer, pH 8, 4.0 h): 81.7 ± 0.8% | remaining at 8 h, 25 μM (DPP-IV; isolated DPP-IV enzyme in buffer, pH 8, 8.0 h): 79.2 ± 2.6% | remaining at 12 h, 25 μM (DPP-IV; isolated DPP-IV enzyme in buffer, pH 8, 12.0 h): 80.7 ± 0.3% | Remaining peak area (%)/human serum ([3]; 0.0 h, peptide 0.03 mM, 37° C.): 100.0 ± 0.0% | remaining at 0.5 h, 0.03 mM ([3]; human, pH 7): 94.6 ± 5.3% | remaining at 2 h, 0.03 mM ([3]; human, pH 7): 69.3 ± 4% | remaining at 4 h, 0.03 mM ([3]; human, pH 7): 43.4 ± 1.7% | remaining at 8 h, 0.03 mM ([3]; human, pH 7): 5.7 ± 0.1% | remaining at 12 h, 0.03 mM ([3]; human, pH 7): 2.2 ± 0.1% | Remaining peak area (%)/elastase (elastase; 1 h, 60 μM, pH 8): 17.8 ± 2.0% | remaining at 0.025 h, 60 μM (elastase; [5]): 90.2 ± 3% | remaining at 0.05 h, 60 μM (elastase; [5]): 86 ± 1.7% | remaining at 0.075 h, 60 μM (elastase; [5]): 79.7 ± 3.5% | remaining at 0.1 h, 60 μM (elastase; [5]): 79.1 ± 2.2% | remaining at 0.15 h, 60 μM (elastase; [5]): 74.5 ± 2.2% | remaining at 0.25 h, 60 μM (elastase; [5]): 63.3 ± 0.7% | remaining at 0.5 h, 60 μM (elastase; [5]): 49.4 ± 0.9% | remaining at 1 h, 60 μM (elastase; [5]): ~20%
